Test results: US11370794B2, “Toll-like receptor antagonist compounds and methods of use” (Dynavax Technologies Corporation, priority 2016, dated 2022)

Target: T1, mouse TLR9 (Mus musculus, UniProt Q9EQU3)
T1 construct: Balb/c mice (Charles River); host or cells: Balb/c mice, in vivo
T1 sequence (Q9EQU3 26-1032): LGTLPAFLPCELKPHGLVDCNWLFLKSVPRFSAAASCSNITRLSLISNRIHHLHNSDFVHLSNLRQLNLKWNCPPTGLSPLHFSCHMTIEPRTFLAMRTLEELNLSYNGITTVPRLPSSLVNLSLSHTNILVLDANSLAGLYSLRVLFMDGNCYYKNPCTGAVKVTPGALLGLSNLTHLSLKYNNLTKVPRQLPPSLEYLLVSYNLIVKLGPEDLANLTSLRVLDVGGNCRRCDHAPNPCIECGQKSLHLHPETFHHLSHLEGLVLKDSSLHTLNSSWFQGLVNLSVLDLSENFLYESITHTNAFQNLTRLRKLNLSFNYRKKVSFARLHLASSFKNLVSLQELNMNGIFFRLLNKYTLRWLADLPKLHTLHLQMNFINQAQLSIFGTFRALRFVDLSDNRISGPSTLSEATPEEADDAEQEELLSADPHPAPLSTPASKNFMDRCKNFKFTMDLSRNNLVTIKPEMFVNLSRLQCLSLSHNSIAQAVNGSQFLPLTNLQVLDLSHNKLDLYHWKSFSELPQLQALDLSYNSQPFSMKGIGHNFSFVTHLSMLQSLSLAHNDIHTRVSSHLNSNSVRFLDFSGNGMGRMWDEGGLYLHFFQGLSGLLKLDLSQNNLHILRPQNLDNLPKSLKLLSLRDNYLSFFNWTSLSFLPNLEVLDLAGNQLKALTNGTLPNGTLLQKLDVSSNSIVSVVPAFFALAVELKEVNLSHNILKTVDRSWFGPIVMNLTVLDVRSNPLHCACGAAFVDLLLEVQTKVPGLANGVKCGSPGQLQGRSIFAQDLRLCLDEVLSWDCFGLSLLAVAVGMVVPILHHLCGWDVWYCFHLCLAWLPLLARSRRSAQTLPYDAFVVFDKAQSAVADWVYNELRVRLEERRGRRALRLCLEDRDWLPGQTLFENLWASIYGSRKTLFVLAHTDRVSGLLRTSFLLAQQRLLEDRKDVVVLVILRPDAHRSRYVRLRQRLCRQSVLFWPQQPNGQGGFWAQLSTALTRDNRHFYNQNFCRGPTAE
Test: Inhibition of mouse TLR9 in mouse acute challenge model over time (serum IL-12)
Format: in vivo
Details: 5 mg/Kg intra-peritoneal, serum IL-12 two, four and twenty-four hours after agonist
Experimental: Example B4-a—Inhibition of Mouse TLR9 in Mouse Acute Challenge Model Over Time
When administered a CpG-containing DNA oligonucleotide, mice respond in an acute manner with release of cytokines into the peripheral blood within 6 hours. The addition of an inhibitor against TLR9 will attenuate the response to the DNA oligonucleotide agonist, which can be measured through a reduction in serum cytokines.
Balb/c mice (Charles River). TLR9 agonist 1018 ISS, CpG-containing DNA oligonucleotide. Mouse interleukin (IL)-12p40 ELISA kit (BD Pharmingen Cat. No. 551219 and 554476).
Mice were injected by the intra-peritoneal dosing route with test compound at 5 mg/kg. Following injection of test compound, mice were injected with a TLR9 agonist (a CpG-containing DNA oligonucleotide) by the intra-peritoneal route to a final dose of approximately 2.5 mg/kg. Two, four and twenty-four hours following administration of the DNA oligonucleotide, blood was collected from mice and processed to serum. The serum was tested for the presence of IL-12 using an ELISA kit. The amount of IL-12 produced is a reflection of the amount of TLR9-dependent receptor activity.

Q: How did the “inhibition of TLR9 activity in mice over time (FIG. 2)” value turn out when `Cc1ccc(-n2nc3c(N4CCC(C(=O)NCCCN(C)C)CC4)nnc(C)c3c2C)cc1` [Compound No. 5, 1-(3,4-dimethyl-2-(p-tolyl)-2H-pyrazolo[3,4-d]pyridazin-7-yl)-N-(3-(dimethylamino)propyl)piperidine-4-carboxamide] was run?
A: inhibition of TLR9 activity
